From ChEMBL document CHEMBL5126519, “Tuberculosis drug discovery: Progression and future interventions in the wake of emerging resistance” (Eur J Med Chem, 2022)
pIC50: −log10 of the molar value. Values after ≈ are worked out from the molar mass of the structure shown.

What was measured:
[1] = test system: Mycobacterium tuberculosis; assay: Antimycobacterial activity against Mycobacterium tuberculosis expressing GFP; type: functional
[2] = test system: Mycobacterium tuberculosis; assay: Antimycobacterial activity against Mycobacterium tuberculosis H37Rv by MABA assay; type: functional
[3] = test system: Mycobacterium tuberculosis; assay: Antimycobacterial activity against drug-sensitive Mycobacterium tuberculosis; type: functional
[4] = test system: Mycobacterium tuberculosis; assay: Antimycobacterial activity against Mycobacterium tuberculosis; type: functional
[5] = test system: Mycobacterium tuberculosis; assay: Antimycobacterial activity against Mycobacterium tuberculosis H37Rv by microplate alamar blue assay; type: functional
[6] = test system: Mycobacterium tuberculosis; assay: Antimycobacterial activity against Mycobacterium tuberculosis H37Rv by agar dilution method; type: functional
[7] = test system: Mycobacterium tuberculosis; assay: Antimycobacterial activity against drug-susceptible Mycobacterium tuberculosis H37Rv; type: functional
[8] = test system: Mycobacterium tuberculosis; assay: Antimycobacterial activity against Mycobacterium tuberculosis infected in mouse; type: functional
[9] = Inhibition of mammalian mitochondrial protein synthesis; type: mitochondria, Mitochondria
[10] = test system: Mycobacterium tuberculosis; assay: Antimycobacterial activity against non-replicating Mycobacterium tuberculosis H37Rv by time kill kinetic assay; type: functional

Structure (SMILES): COCCNC(=O)c1cn(Cc2ccc(F)cc2)c2ccc([N+](=O)[O-])cc2c1=O
- MIC [1]: < 0.244 µM

Structure (SMILES): Cc1c(C(=O)OCc2ccccc2)[n+]([O-])c2cc(F)c(-n3cncn3)cc2[n+]1[O-]
- MIC [2]: ≤ 0.25 µg/mL

Structure (SMILES): CCNC(=O)Nc1nc2nc(-c3cnc(C(C)(C)O)nc3)c(F)c([C@H]3CCCO3)c2[nH]1
- MIC [3]: 0.03 µg/mL (≈ 0.0699 µM)

Structure (SMILES): Cc1cc(/C=C/c2ccc3cc(N(C)C)ccc3[n+]2C)c(C)n1-c1ccccc1.Cc1cc(/C=C/c2ccc3cc(N(C)C)ccc3[n+]2C)c(C)n1-c1ccccc1.O=C(O)c1cc2ccccc2c(Cc2c(O)c(C(=O)O)cc3ccccc23)c1O
- MIC99 [3]: 1.55 µg/mL

Structure (SMILES): O[C@@H](c1cc(C(F)(F)F)nc2c(C(F)(F)F)cccc12)[C@H]1CCCCN1 [(S,R)-MEFLOQUINE]
- MIC [4]: 10 µM

Structure (SMILES): CC(C)(C)NCC(O)CSc1nc(-c2ccc(C(N)=O)s2)cs1 (stereo not drawn) [AROTINOLOL]
- MIC [5]: 3.12 µM (≈ 1.16 µg/mL)

Structure (SMILES): COc1nc2ccc(Br)cc2cc1[C@@H](c1ccccc1)[C@@](O)(CCN(C)C)c1cccc2ccccc12 [BEDAQUILINE]
- MIC [6]: 0.015 µg/mL (≈ 0.027 µM)

Structure (SMILES): C[C@H]1COC2(CCN(c3nc(=O)c4cc(C(F)(F)F)cc([N+](=O)[O-])c4s3)CC2)O1 [BTZ-043]
- MIC [4]: 0.001 µg/mL

Structure (SMILES): C[C@]1(COc2ccc(N3CCC(Oc4ccc(OC(F)(F)F)cc4)CC3)cc2)Cn2cc([N+](=O)[O-])nc2O1 [DELAMANID]
- MIC [7]: 0.0005 µg/mL (≈ 0.000935 µM)

Structure (SMILES): CC1=NN(c2ccc(C)c(C)c2)C(=O)/C1=N\Nc1cccc(-c2cccc(C(=O)O)c2)c1O [ELTROMBOPAG]
- MIC [5]: 6.25 µM (≈ 2.77 µg/mL)

Structure (SMILES): NC[C@H]1OB(O)c2c(OCCO)ccc(Cl)c21 [GANFEBOROLE]
- MIC [2]: 0.08 µM
- ED99 [8]: 0.4 mg/kg

Structure (SMILES): CN(C)[C@@H]1C(O)=C(C(=O)NCNCCCC[C@H](N)C(=O)O)C(=O)[C@@]2(O)C(O)=C3C(=O)c4c(O)cccc4[C@@](C)(O)[C@H]3C[C@@H]12 [LYMECYCLINE]
- MIC [4]: 166 µM

Structure (SMILES): O=c1nc(N2CCN(CC3CCCCC3)CC2)sc2c([N+](=O)[O-])cc(C(F)(F)F)cc12 [MACOZINONE]
- MIC [4]: 0.00019 µg/mL

Structure (SMILES): COc1c(N2C[C@@H]3CCCN[C@@H]3C2)c(F)cc2c(=O)c(C(=O)O)cn(C3CC3)c12 [MOXIFLOXACIN]
- MIC [4]: 1.1 µM

Structure (SMILES): CC(=O)Oc1ccccc1C(=O)Nc1ncc([N+](=O)[O-])s1 [NITAZOXANIDE]
- MIC [4]: 33.2 µM

Structure (SMILES): O=[N+]([O-])c1cn2c(n1)OC[C@@H](OCc1ccc(OC(F)(F)F)cc1)C2 [PRETOMANID]
- MIC [3]: 0.015 µg/mL (≈ 0.0418 µM)

Structure (SMILES): CC(C)=CCC/C(C)=C/CNCCNC1C2CC3CC(C2)CC1C3 (stereo not drawn) [SQ109]
- MIC [4]: 0.78 µg/mL

Structure (SMILES): CC(=O)NC[C@H]1CN(c2ccc(N3CCSCC3)c(F)c2)C(=O)O1 [SUTEZOLID]
- MIC [4]: 0.062 µg/mL

Structure (SMILES): COC(=O)NC[C@H]1CN(c2ccc(N3CC4(COC4)C3)c(F)c2)C(=O)O1 [TBI-223]
- pIC50 [9]: < 4.13

Structure (SMILES): CCc1nc2ccc(Cl)cn2c1C(=O)NCc1ccc(N2CCC(c3ccc(OC(F)(F)F)cc3)CC2)cc1 [TELACEBEC]
- MIC [4]: 0.008 µg/mL

Structure (SMILES): CSc1ccc2c(c1)N(CCC1CCCCN1C)c1ccccc1S2 (stereo not drawn) [THIORIDAZINE]
- MIC [4]: 19.6 µM

Structure (SMILES): COc1ccc(CCN(C)CCCC(C#N)(c2ccc(OC)c(OC)c2)C(C)C)cc1OC (stereo not drawn) [VERAPAMIL]
- MIC [10]: 512 µM (≈ 233 µg/mL)
